Assay results taken from patent US8686150B2 (Sanofi, priority 2011, dated 2014).

These molecules were tested against T1, human full-length recombinant PKC βII (Homo sapiens, UniProt P05771) (assay: Determination of PKC βII inhibition (Caliper mobility-shift kinase assay, Fluorescein-RFARKGSLRQKNV peptide substrate)). Conditions: example compounds at a final concentration of 1.14 μM (±0.15 μM).
T1 construct: Active human full-length recombinant PKC βII; purchased Invitrogen GmbH, Darmstadt, Germany
T1 sequence (P05771 1-673 isoform P05771-2): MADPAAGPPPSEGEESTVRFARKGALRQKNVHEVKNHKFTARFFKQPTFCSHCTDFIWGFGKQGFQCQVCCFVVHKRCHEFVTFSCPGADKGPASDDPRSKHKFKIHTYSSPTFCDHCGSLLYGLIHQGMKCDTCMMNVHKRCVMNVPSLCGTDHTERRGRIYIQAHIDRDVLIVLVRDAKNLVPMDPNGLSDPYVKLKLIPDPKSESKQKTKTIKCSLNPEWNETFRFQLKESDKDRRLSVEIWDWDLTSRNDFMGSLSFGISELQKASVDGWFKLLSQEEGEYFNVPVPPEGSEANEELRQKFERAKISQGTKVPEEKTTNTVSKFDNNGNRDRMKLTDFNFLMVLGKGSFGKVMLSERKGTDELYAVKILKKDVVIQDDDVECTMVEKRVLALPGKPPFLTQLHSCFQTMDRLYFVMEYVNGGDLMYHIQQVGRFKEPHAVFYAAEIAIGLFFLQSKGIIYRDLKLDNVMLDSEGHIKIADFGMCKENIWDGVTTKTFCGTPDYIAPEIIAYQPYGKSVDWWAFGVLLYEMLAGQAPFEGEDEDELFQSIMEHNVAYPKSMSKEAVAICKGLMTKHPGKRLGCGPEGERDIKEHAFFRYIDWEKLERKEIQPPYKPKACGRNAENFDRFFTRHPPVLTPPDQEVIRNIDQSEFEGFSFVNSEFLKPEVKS
Type: biochemical
Procedure, shortened: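 Full-length PKC βII (30 ng/ml in pre-dilution) with PS/DAG/Ca2+ activators, pH 7.4; fluorescein peptide and ATP at 3 μM and 120 μM before mixing. Reaction ran 60 min at 32 °C, was EDTA-stopped, and was read by mobility shift. % inhibition came from product/(substrate+product) peak heights, tested at 1.14 μM final.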

| Compound | inhibition at 1.14 µM [%] | % Inhibition [%] |
| --- | --- | --- |
| Cc1n[nH]c2nc(-c3ccc(O)cc3)cc(C(=O)NC3CC4CC3CN4)c12 (stereo not drawn) [Example 193, 6-(4-Hydroxy-phenyl)-3-methyl-1H-pyrazolo[3,4-b]pyridine-4-carboxylic acid (2-aza-bicyclo[2.2.1]hept-5-yl)-amide] | 94 | – |
| Cc1n[nH]c2nc(-c3ccc(O)cc3)cc(C(=O)N[C@@H]3CN4CCC3CC4)c12 [Example 200] | – | 70 |
| Cc1n[nH]c2nc(-c3ccc(O)cc3)cc(C(=O)NC3CC4CCC(C3)N4C)c12 [Example 201, 6-(4-Hydroxy-phenyl)-3-methyl-1H-pyrazolo[3,4-b]pyridine-4-carboxylic acid ((3R)-8-methyl-8-aza-bicyclo[3.2.1]oct-3-yl)-amide] | – | 55 |
| Cc1n[nH]c2nc(-c3ccc(O)cc3)cc(C(=O)NC3CCNC4(CCC4)C3)c12 (stereo not drawn) [Example 204, 6-(4-Hydroxy-phenyl)-3-methyl-1H-pyrazolo[3,4-b]pyridine-4-carboxylic acid (5-aza-spiro[3.5]non-8-yl)-amide] | 82 | – |
| Cc1n[nH]c2nc(-c3ccc(O)cc3)cc(C(=O)NC3CN4CCC3CC4)c12 (stereo not drawn) [Example 207, 6-(4-Hydroxy-phenyl)-3-methyl-1H-pyrazolo[3,4-b]pyridine-4-carboxylic acid (1-aza-bicyclo[2.2.2]oct-3-yl)-amide] | 94 | – |
| Cc1n[nH]c2nc(-c3ccc(O)cc3)cc(C(=O)N[C@@H]3CCC(=O)NC3)c12 [Example 208, 6-(4-Hydroxy-phenyl)-3-methyl-1H-pyrazolo[3,4-b]pyridine-4-carboxylic acid ((R)-6-oxo-piperidin-3-yl)-amide] | 88 | – |
| CO[C@H]1CNC[C@@H]1NC(=O)c1cc(-c2ccc(O)cc2)nc2[nH]nc(C)c12 [Example 213, 6-(4-Hydroxy-phenyl)-3-methyl-1H-pyrazolo[3,4-b]pyridine-4-carboxylic acid ((3S,4S)-4-methoxy-pyrrolidin-3-yl)-amide] | 94 | – |
| Cc1n[nH]c2nc(-c3ccc(O)cc3)cc(C(=O)N[C@H]3[C@@H]4CNC[C@@H]43)c12 [Example 214, 6-(4-Hydroxy-phenyl)-3-methyl-1H-pyrazolo[3,4-b]pyridine-4-carboxylic acid (3-azabicyclo[3.1.0]hex-6-yl)-amide] | 73 | – |
| Cc1n[nH]c2nc(-c3ccc(O)cc3)cc(C(=O)N3CCNCC3Cc3ccccc3)c12 (stereo not drawn) [Example 217, (2-Benzyl-piperazin-1-yl)-[6-(4-hydroxy-phenyl)-3-methyl-1H-pyrazolo[3,4-b]pyridin-4-yl]-methanone] | 93 | – |
| Cc1n[nH]c2nc(-c3ccc(O)cc3)cc(C(=O)NCCC3CCCN3C)c12 (stereo not drawn) [Example 218, 6-(4-Hydroxy-phenyl)-3-methyl-1H-pyrazolo[3,4-b]pyridine-4-carboxylic acid [2-(1-methyl-pyrrolidin-2-yl)-ethyl]-amide] | 85 | – |
| Cc1n[nH]c2nc(-c3ccc(O)cc3)cc(C(=O)NC3CC4CCC(C3)N4C)c12 (stereo not drawn) [Example 219, 6-(4-Hydroxy-phenyl)-3-methyl-1H-pyrazolo[3,4-b]pyridine-4-carboxylic acid (8-methyl-8-aza-bicyclo[3.2.1]oct-3-yl)-amide] | 89 | – |
| Cc1n[nH]c2nc(-c3ccc(O)cc3)cc(C(=O)NC3CC4CCCC(C3)N4C)c12 (stereo not drawn) [Example 223, 6-(4-Hydroxy-phenyl)-3-methyl-1H-pyrazolo[3,4-b]pyridine-4-carboxylic acid (9-methyl-9-aza-bicyclo[3.3.1]non-3-yl)-amide] | 74 | – |
| Cc1n[nH]c2nc(-c3ccc(O)cc3)cc(C(=O)N3CCNC[C@H]3Cc3ccccc3)c12 [Example 224, ((R)-2-Benzyl-piperazin-1-yl)-[6-(4-hydroxy-phenyl)-3-methyl-1H-pyrazolo[3,4-b]pyridin-4-yl]-methanone] | 92 | – |
| Cc1n[nH]c2nc(-c3ccc(O)cc3)cc(C(=O)N3CCNC[C@@H]3Cc3ccccc3)c12 [Example 225, ((S)-2-Benzyl-piperazin-1-yl)-[6-(4-hydroxy-phenyl)-3-methyl-1H-pyrazolo[3,4-b]pyridin-4-yl]-methanone] | 85 | – |

The next lines start with results.

| inhibition at 1.14 µM [%] | Compound | % Inhibition [%] |
| --- | --- | --- |
| 99 | Cc1n[nH]c2nc(-c3ccc(O)cc3)cc(C(=O)N3CCNC(C)C3C)c12 (stereo not drawn) [Example 194, (2,3-Dimethyl-piperazin-1-yl)-[6-(4-hydroxy-phenyl)-3-methyl-1H-pyrazolo[3,4-b]pyridin-4-yl]-methanone] | – |
| 95 | CCC[C@@H]1CN(C(=O)c2cc(-c3ccc(O)cc3)nc3[nH]nc(C)c23)CCN1 [Example 195, [6-(4-Hydroxy-phenyl)-3-methyl-1H-pyrazolo[3,4-b]pyridin-4-yl]-((R)-3-propyl-piperazin-1-yl)-methanone] | – |
| 75 | Cc1n[nH]c2nc(-c3ccc(O)cc3)cc(C(=O)N3CCNC(C(F)(F)F)C3)c12 (stereo not drawn) [Example 196, [6-(4-Hydroxy-phenyl)-3-methyl-1H-pyrazolo[3,4-b]pyridin-4-yl]-(3-trifluoromethyl-piperazin-1-yl)-methanone] | – |
| 95 | COC(=O)CC1CNCCN1C(=O)c1cc(-c2ccc(O)cc2)nc2[nH]nc(C)c12 (stereo not drawn) [Example 197, {1-[6-(4-Hydroxy-phenyl)-3-methyl-1H-pyrazolo[3,4-b]pyridine-4-carbonyl]-piperazin-2-yl}-acetic acid methyl ester] | – |
| 99 | Cc1n[nH]c2nc(-c3ccc(O)cc3)cc(C(=O)N3CCNC(C)(C)C3)c12 [Example 198, (3,3-Dimethyl-piperazin-1-yl)-[6-(4-hydroxy-phenyl)-3-methyl-1H-pyrazolo[3,4-b]pyridin-4-yl]-methanone] | – |
| 99 | Cc1n[nH]c2nc(-c3ccc(O)cc3)cc(C(=O)N3CCNCC3(C)C)c12 [Example 199, (2,2-Dimethyl-piperazin-1-yl)-[6-(4-hydroxy-phenyl)-3-methyl-1H-pyrazolo[3,4-b]pyridin-4-yl]-methanone] | – |
| 101 | Cc1n[nH]c2nc(-c3ccc(O)cc3)cc(C(=O)N3CCNC[C@@H]3C(C)C)c12 [Example 202, [6-(4-Hydroxy-phenyl)-3-methyl-1H-pyrazolo[3,4-b]pyridin-4-yl]-((S)-2-isopropyl-piperazin-1-yl)-methanone] | – |
| 71 | Cc1n[nH]c2nc(-c3ccc(O)cc3)cc(C(=O)N3CC[C@@H](C4(N)CC4)C3)c12 [Example 203, [(R)-3-(1-Amino-cyclopropyl)-pyrrolidin-1-yl]-[6-(4-hydroxy-phenyl)-3-methyl-1H-pyrazolo[3,4-b]pyridin-4-yl]-methanone] | – |
| 98 | COC(=O)[C@H]1CNCCN1C(=O)c1cc(-c2ccc(O)cc2)nc2[nH]nc(C)c12 [Example 206, (R)-1-[6-(4-Hydroxy-phenyl)-3-methyl-1H-pyrazolo[3,4-b]pyridine-4-carbonyl]-piperazine-2-carboxylic acid methyl ester] | – |
| 97 | CCCC[C@H]1CN(C(=O)c2cc(-c3ccc(O)cc3)nc3[nH]nc(C)c23)CCN1 [Example 209, ((S)-3-Butyl-piperazin-1-yl)-[6-(4-hydroxy-phenyl)-3-methyl-1H-pyrazolo[3,4-b]pyridin-4-yl]-methanone] | – |
| 100 | CC[C@H]1CN(C(=O)c2cc(-c3ccc(O)cc3)nc3[nH]nc(C)c23)CCN1 [Example 210, ((S)-3-Ethyl-piperazin-1-yl)-[6-(4-hydroxy-phenyl)-3-methyl-1H-pyrazolo[3,4-b]pyridin-4-yl]-methanone] | – |
| 64 | COC(=O)[C@H]1CN(C(=O)c2cc(-c3ccc(O)cc3)nc3[nH]nc(C)c23)CCN1 [Example 211, (R)-4-[6-(4-Hydroxy-phenyl)-3-methyl-1H-pyrazolo[3,4-b]pyridine-4-carbonyl]-piperazine-2-carboxylic acid methyl ester] | – |
| 94 | COC[C@H]1CN(C(=O)c2cc(-c3ccc(O)cc3)nc3[nH]nc(C)c23)CCN1 [Example 212, [6-(4-Hydroxy-phenyl)-3-methyl-1H-pyrazolo[3,4-b]pyridin-4-yl]-((R)-3-methoxymethyl-piperazin-1-yl)-methanone] | – |
| 99 | Cc1n[nH]c2nc(-c3ccc(O)cc3)cc(C(=O)N3CCN[C@@H](CC(C)C)C3)c12 [Example 215, [6-(4-Hydroxy-phenyl)-3-methyl-1H-pyrazolo[3,4-b]pyridin-4-yl]-((S)-3-isobutyl-piperazin-1-yl)-methanone] | – |
| 92 | Cc1n[nH]c2nc(-c3ccc(O)cc3)cc(C(=O)NCC3CCNC3)c12 (stereo not drawn) [Example 216, 6-(4-Hydroxy-phenyl)-3-methyl-1H-pyrazolo[3,4-b]pyridine-4-carboxylic acid (pyrrolidin-3-ylmethyl)-amide] | – |
| 88 | Cc1n[nH]c2nc(-c3ccc(O)cc3)cc(C(=O)NC3CCN(C)CC3)c12 [Example 220, 6-(4-Hydroxy-phenyl)-3-methyl-1H-pyrazolo[3,4-b]pyridine-4-carboxylic acid (1-methyl-piperidin-4-yl)-amide] | – |
| 100 | Cc1n[nH]c2nc(-c3ccc(O)cc3)cc(C(=O)N3CCNC(C)C3)c12 (stereo not drawn) [Example 221, [6-(4-Hydroxy-phenyl)-3-methyl-1H-pyrazolo[3,4-b]pyridin-4-yl]-(3-methyl-piperazin-1-yl)-methanone] | – |
| 97 | Cc1n[nH]c2nc(-c3ccc(O)cc3)cc(C(=O)N[C@@H]3CCCNC3)c12 [Example 222, 6-(4-Hydroxy-phenyl)-3-methyl-1H-pyrazolo[3,4-b]pyridine-4-carboxylic acid (R)-piperidin-3-ylamide] | – |
| 95 | Cc1n[nH]c2nc(-c3ccc(O)cc3)cc(C(=O)N3CCC4CNCC43)c12 (stereo not drawn) [Example 226, (Hexahydro-pyrrolo[3,4-b]pyrrol-1-yl)-[6-(4-hydroxy-phenyl)-3-methyl-1H-pyrazolo[3,4-b]pyridin-4-yl]-methanone] | – |
